Measurements from patent publication US12319672B2, “Alpha-D-galactopyranoside derivatives” (Idorsia Pharmaceuticals Ltd, priority 2019, dated 2025).

Tests used:
human Gal-3 (hGal-3) = human Gal-3 (hGal-3) (Homo sapiens (Human), UniProt P17931); assay: Competitive binding assay: binding of biotinylated hGal-3 to microplate-adsorbed asialofetuin (ASF); conditions: Activity on hGal-3; mean values of several measurements
Outline: (§1)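 Compounds diluted in DMSO competed with biotinylated hGal-3 or hGal-1 (300-1000 ng/mL) for binding to plate-adsorbed asialofetuin for 3 h at 4° C. Bound galectin was detected with streptavidin-peroxidase (80 ng/mL, 1 h, 4° C) and ABTS substrate; IC50 reported as mean of several measurements.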

human Gal-1 (hGal-1) = assay: Competitive binding assay: binding of biotinylated hGal-1 to microplate-adsorbed asialofetuin (ASF); conditions: Activities on hGal-1; mean values of several measurements
human Gal-1 (hGal-1), sequence (P09382 2-135 limits assumed): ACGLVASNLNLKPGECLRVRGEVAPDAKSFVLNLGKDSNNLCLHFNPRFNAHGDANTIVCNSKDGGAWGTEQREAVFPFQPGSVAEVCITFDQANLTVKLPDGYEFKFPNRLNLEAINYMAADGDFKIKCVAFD
Outline: as §1

human Gal-3 (hGal-3), sequence (P17931 whole entry): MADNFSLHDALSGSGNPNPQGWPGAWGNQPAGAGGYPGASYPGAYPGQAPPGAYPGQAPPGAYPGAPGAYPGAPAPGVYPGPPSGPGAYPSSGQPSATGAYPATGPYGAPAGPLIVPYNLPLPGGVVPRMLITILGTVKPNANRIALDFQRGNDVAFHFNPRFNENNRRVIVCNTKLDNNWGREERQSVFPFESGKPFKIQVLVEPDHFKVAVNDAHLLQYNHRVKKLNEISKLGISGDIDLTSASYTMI

SMILES	IC50 (human Gal-3 (hGal-3)) [µM]	IC50 (human Gal-1 (hGal-1)) [µM]
CO[C@@H]1[C@@H](n2cc(-c3cc(F)c(F)c(F)c3)nn2)[C@@H](O)[C@@H](CO)O[C@@H]1Cc1cc(C2CCN(S(=O)(=O)N(C)C)CC2)on1 [Example 3.58, 4-(3-(((2R,3R,4S,5R,6R)-5-hydroxy-6-(hydroxymethyl)-3-methoxy-4-(4-(3,4,5-trifluorophenyl)-1H-1,2,3-triazol-1-yl)tetrahydro-2H-pyran-2-yl)methyl)isoxazol-5-yl)-N,N-dimethylpiperidine-1-sulfonamide]	0.061	1.87
CO[C@@H]1[C@@H](n2cc(-c3cc(F)c(F)c(F)c3)nn2)[C@@H](O)[C@@H](CO)O[C@@H]1Cc1cc(C2CCN(C(=O)NC3CC3)CC2)on1 [Example 3.59, N-cyclopropyl-4-(3-(((2R,3R,4S,5R,6R)-5-hydroxy-6-(hydroxymethyl)-3-methoxy-4-(4-(3,4,5-trifluorophenyl)-1H-1,2,3-triazol-1-yl)tetrahydro-2H-pyran-2-yl)methyl)isoxazol-5-yl)piperidine-1-carboxamide]	0.042	0.98
CO[C@@H]1[C@@H](n2cc(-c3cc(F)c(F)c(F)c3)nn2)[C@@H](O)[C@@H](CO)O[C@@H]1C[C@H]1CC(C2CCN(S(=O)(=O)C(C)C)CC2)=NO1 [Example 3.60, (2R,3R,4S,5R,6R)-2-(hydroxymethyl)-6-(((R)-3-(1-(isopropylsulfonyl)piperidin-4-yl)-4,5-dihydroisoxazol-5-yl)methyl)-5-methoxy-4-(4-(3,4,5-trifluorophenyl)-1H-1,2,3-triazol-1-yl)tetrahydro-2H-pyran-3-ol]	0.37	5.1
CO[C@@H]1[C@@H](n2cc(-c3cc(F)c(F)c(F)c3)nn2)[C@@H](O)[C@@H](CO)O[C@@H]1C[C@@H]1CC(C2CCN(S(=O)(=O)C(C)C)CC2)=NO1 [Example 3.61, (2R,3R,4S,5R,6R)-2-(hydroxymethyl)-6-(((S)-3-(1-(isopropylsulfonyl)piperidin-4-yl)-4,5-dihydroisoxazol-5-yl)methyl)-5-methoxy-4-(4-(3,4,5-trifluorophenyl)-1H-1,2,3-triazol-1-yl)tetrahydro-2H-pyran-3-ol]	0.072	1.12
CO[C@@H]1[C@@H](n2cc(-c3cc(F)c(F)c(F)c3)nn2)[C@@H](O)[C@@H](CO)O[C@@H]1Cc1cc(C2CCN(S(=O)(=O)N3CCOCC3)CC2)on1 [Example 3.62, (2R,3R,4S,5R,6R)-2-(hydroxymethyl)-5-methoxy-6-((5-(1-(morpholinosulfonyl)piperidin-4-yl)isoxazol-3-yl)methyl)-4-(4-(3,4,5-trifluorophenyl)-1H-1,2,3-triazol-1-yl)tetrahydro-2H-pyran-3-ol]	0.045	1.35
CO[C@@H]1[C@@H](n2cc(-c3cc(F)c(F)c(F)c3)nn2)[C@@H](O)[C@@H](CO)O[C@@H]1Cc1cc(C2CCN(S(=O)(=O)N3CCCCC3)CC2)on1 [Example 3.63, (2R,3R,4S,5R,6R)-2-(hydroxymethyl)-5-methoxy-6-((5-(1-(piperidin-1-ylsulfonyl)piperidin-4-yl)isoxazol-3-yl)methyl)-4-(4-(3,4,5-trifluorophenyl)-1H-1,2,3-triazol-1-yl)tetrahydro-2H-pyran-3-ol]	0.069	0.56
CO[C@@H]1[C@@H](n2cc(-c3cc(F)c(F)c(F)c3)nn2)[C@@H](O)[C@@H](CO)O[C@@H]1Cc1cc(C2CCN(S(=O)(=O)N3CCCC3)CC2)on1 [Example 3.64, (2R,3R,4S,5R,6R)-2-(hydroxymethyl)-5-methoxy-6-((5-(1-(pyrrolidin-1-ylsulfonyl)piperidin-4-yl)isoxazol-3-yl)methyl)-4-(4-(3,4,5-trifluorophenyl)-1H-1,2,3-triazol-1-yl)tetrahydro-2H-pyran-3-ol]	0.025	0.76
CO[C@@H]1[C@@H](n2cc(-c3cc(F)c(F)c(F)c3)nn2)[C@@H](O)[C@@H](CO)O[C@@H]1Cc1cc(C2CCN(S(=O)(=O)N3CCC(F)(F)CC3)CC2)on1 [Example 3.65, (2R,3R,4S,5R,6R)-6-((5-(1-((4,4-difluoropiperidin-1-yl)sulfonyl)piperidin-4-yl)isoxazol-3-yl)methyl)-2-(hydroxymethyl)-5-methoxy-4-(4-(3,4,5-trifluorophenyl)-1H-1,2,3-triazol-1-yl)tetrahydro-2H-pyran-3-ol]	0.045	1.88
CO[C@@H]1[C@@H](n2cc(-c3cc(F)c(F)c(F)c3)nn2)[C@@H](O)[C@@H](CO)O[C@@H]1Cc1cc(C2CCN(C(=O)N3CCCCC3)CC2)on1 [Example 3.66, (4-(3-(((2R,3R,4S,5R,6R)-5-hydroxy-6-(hydroxymethyl)-3-methoxy-4-(4-(3,4,5-trifluorophenyl)-1H-1,2,3-triazol-1-yl)tetrahydro-2H-pyran-2-yl)methyl)isoxazol-5-yl)piperidin-1-yl)(piperidin-1-yl)methanone]	0.14	3.59
CO[C@@H]1[C@@H](n2cc(-c3cc(F)c(F)c(F)c3)nn2)[C@@H](O)[C@@H](CO)O[C@@H]1Cc1cc(C2CCN(C(=O)N3CCCC3)CC2)on1 [Example 3.67, (4-(3-(((2R,3R,4S,5R,6R)-5-hydroxy-6-(hydroxymethyl)-3-methoxy-4-(4-(3,4,5-trifluorophenyl)-1H-1,2,3-triazol-1-yl)tetrahydro-2H-pyran-2-yl)methyl)isoxazol-5-yl)piperidin-1-yl)(pyrrolidin-1-yl)methanone]	0.069	0.92
CCN(C)C(=O)N1CCC(c2cc(C[C@H]3O[C@H](CO)[C@H](O)[C@H](n4cc(-c5cc(F)c(F)c(F)c5)nn4)[C@H]3OC)no2)CC1 [Example 3.68, N-ethyl-4-(3-(((2R,3R,4S,5R,6R)-5-hydroxy-6-(hydroxymethyl)-3-methoxy-4-(4-(3,4,5-trifluorophenyl)-1H-1,2,3-triazol-1-yl)tetrahydro-2H-pyran-2-yl)methyl)isoxazol-5-yl)-N-methylpiperidine-1-carboxamide]	0.11	2.46
CO[C@@H]1[C@@H](n2cc(-c3cc(F)c(F)c(F)c3)nn2)[C@@H](O)[C@@H](CO)O[C@@H]1Cc1cc(C2CCN(C(=O)N(C)C)CC2)on1 [Example 3.69, 4-(3-(((2R,3R,4S,5R,6R)-5-hydroxy-6-(hydroxymethyl)-3-methoxy-4-(4-(3,4,5-trifluorophenyl)-1H-1,2,3-triazol-1-yl)tetrahydro-2H-pyran-2-yl)methyl)isoxazol-5-yl)-N,N-dimethylpiperidine-1-carboxamide]	0.17	2.47
CO[C@@H]1[C@@H](n2cc(-c3cc(F)c(F)c(F)c3)nn2)[C@@H](O)[C@@H](CO)O[C@@H]1Cc1cc(C2CCN(C(=O)N3CCN(C)CC3)CC2)on1 [Example 3.70, (4-(3-(((2R,3R,4S,5R,6R)-5-hydroxy-6-(hydroxymethyl)-3-methoxy-4-(4-(3,4,5-trifluorophenyl)-1H-1,2,3-triazol-1-yl)tetrahydro-2H-pyran-2-yl)methyl)isoxazol-5-yl)piperidin-1-yl)(4-methylpiperazin-1-yl)methanone]	0.084	0.82
CO[C@@H]1[C@@H](n2cc(-c3cc(F)c(F)c(F)c3)nn2)[C@@H](O)[C@@H](CO)O[C@@H]1Cn1cc(-c2cccc(F)c2)nn1 [Example 4.01, (2R,3R,4S,5R,6R)-6-((4-(3-fluorophenyl)-1H-1,2,3-triazol-1-yl)methyl)-2-(hydroxymethyl)-5-methoxy-4-(4-(3,4,5-trifluorophenyl)-1H-1,2,3-triazol-1-yl)tetrahydro-2H-pyran-3-ol]	1.24	13.5
CO[C@@H]1[C@@H](n2cc(-c3cc(F)c(F)c(F)c3)nn2)[C@@H](O)[C@@H](CO)O[C@@H]1Cn1cc(-c2ccc3[nH]c(=O)oc3c2)nn1 [Example 4.02, 6-(1-(((2R,3R,4S,5R,6R)-5-hydroxy-6-(hydroxymethyl)-3-methoxy-4-(4-(3,4,5-trifluorophenyl)-1H-1,2,3-triazol-1-yl)tetrahydro-2H-pyran-2-yl)methyl)-1H-1,2,3-triazol-4-yl)benzo[d]oxazol-2(3H)-one]	0.69	20.3
CO[C@@H]1[C@@H](n2cc(-c3cc(F)c(F)c(F)c3)nn2)[C@@H](O)[C@@H](CO)O[C@@H]1Cc1cn(C2CCOCC2)nn1 [Example 4.03, (2R,3R,4S,5R,6R)-2-(hydroxymethyl)-5-methoxy-6-((1-(tetrahydro-2H-pyran-4-yl)-1H-1,2,3-triazol-4-yl)methyl)-4-(4-(3,4,5-trifluorophenyl)-1H-1,2,3-triazol-1-yl)tetrahydro-2H-pyran-3-ol]	0.076	1.76
CO[C@@H]1[C@@H](n2cc(-c3cc(F)c(F)c(F)c3)nn2)[C@@H](O)[C@@H](CO)O[C@@H]1Cn1cc(C2CCN(C(C)=O)CC2)nn1 [Example 4.04, 1-(4-(1-(((2R,3R,4S,5R,6R)-5-hydroxy-6-(hydroxymethyl)-3-methoxy-4-(4-(3,4,5-trifluorophenyl)-1H-1,2,3-triazol-1-yl)tetrahydro-2H-pyran-2-yl)methyl)-1H-1,2,3-triazol-4-yl)piperidin-1-yl)ethan-1-one]	0.044	0.7
CO[C@@H]1[C@@H](n2cc(-c3cc(F)c(F)c(F)c3)nn2)[C@@H](O)[C@@H](CO)O[C@@H]1Cc1cn(C2CCN(C(=O)OC(C)(C)C)CC2)nn1 [Example 4.05, tert-butyl 4-(4-(((2R,3R,4S,5R,6R)-5-hydroxy-6-(hydroxymethyl)-3-methoxy-4-(4-(3,4,5-trifluorophenyl)-1H-1,2,3-triazol-1-yl)tetrahydro-2H-pyran-2-yl)methyl)-1H-1,2,3-triazol-1-yl)piperidine-1-carboxylate]	0.035	0.14
